Assay results: patent US7109193B2, “Tricyclic diazepines tocolytic oxytocin receptor antagonists” (Wyeth, priority 2001, dated 2006)

biological target: T1, human vasopressin V1a receptor subtype (Homo sapiens, UniProt P37288); test: Vasopressin binding in Chinese Hamster Ovary cell membranes expressing human vasopressin V1a subtype receptors; details: 100 nM, CHO cell membranes, [3H]Manning ligand, values without parentheses
T1 construct: host or cells: CHO cells (pZeoSV vector for the Thibonnier line)
T1 sequence (P37288 whole entry): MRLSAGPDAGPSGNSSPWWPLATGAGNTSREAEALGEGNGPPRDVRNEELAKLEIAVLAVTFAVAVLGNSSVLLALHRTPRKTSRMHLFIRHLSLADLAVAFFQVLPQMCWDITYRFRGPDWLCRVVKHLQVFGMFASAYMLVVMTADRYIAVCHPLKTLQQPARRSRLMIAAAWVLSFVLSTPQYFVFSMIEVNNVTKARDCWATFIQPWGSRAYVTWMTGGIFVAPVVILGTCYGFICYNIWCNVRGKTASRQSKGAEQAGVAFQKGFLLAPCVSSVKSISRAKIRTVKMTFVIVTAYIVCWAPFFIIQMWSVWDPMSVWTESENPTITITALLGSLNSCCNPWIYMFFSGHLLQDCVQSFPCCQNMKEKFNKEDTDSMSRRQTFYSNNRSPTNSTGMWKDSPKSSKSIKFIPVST
How it was run: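 Displacement of [3H]Manning ligand (8 nM working solution) from human V1a receptors in CHO cell membranes, 25–50 μg protein per well. Incubation ran 60 min at room temperature in 50 mM Tris-HCl pH 7.4 with protease inhibitors, followed by filtration and scintillation counting. Results are given as IC50 or percent inhibition.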

Going from `Cc1cc(C(=O)N2Cc3ccc(C(=O)N4CCN(CCCN(C)C)CC4)n3Cc3ccccc32)ccc1-c1ccccc1C(F)(F)F` [Example 4, [4-(3-Dimethylaminopropyl)-piperazin-1-yl]-[10-(2-methyl-2′-trifluoromethyl-[1,1′-biphenyl]-4-yl)carbonyl]-[10,11-dihydro-5H-pyrrolo[2,1-c][1,4]benzodiazepin-3-yl]-methanone] to `COc1cc(C(=O)N2Cc3ccc(C(=O)N(C)CCCN(C)C)n3Cc3ccccc32)ccc1-c1ccccc1C` [Example 105, N-[3-(Dimethylamino)propyl]-10-[(2-methoxy-2′-methyl[1,1′-biphenyl]-4-yl)carbonyl]-N-methyl-10,11-dihydro-5H-pyrrolo[2,1-c][1,4]benzodiazepine-3-carboxamide], the inhibition at 0.1 µM rises from 14% to 74%.

Compared with `Cc1ccccc1-c1ccc(C(=O)N2Cc3ccc(C(=O)N(C)CCCN(C)C)n3Cc3ccccc32)cc1` [Example 104, N-[3-(Dimethylamino)propyl]-N-methyl-10-[(2′-methyl[1,1′-biphenyl]-4-yl)carbonyl]-10,11-dihydro-5H-pyrrolo[2,1-c][1,4]benzodiazepine-3-carboxamide], `COc1cc(C(=O)N2Cc3ccc(C(=O)N(C)CCCN(C)C)n3Cc3ccccc32)ccc1-c1cccc2ccccc12` [Example 106, N-[3-(Dimethylamino)propyl]-10-[3-methoxy-4-(1-naphthyl)benzoyl]-N-methyl-10,11-dihydro-5H-pyrrolo[2,1-c][1,4]benzodiazepine-3-carboxamide] is lower in inhibition at 0.1 µM: 85% for the first, 22% for the second.

same assay, conditions: CHO cell membranes, [3H]Manning ligand, values in parentheses

`COc1cc(C(=O)N2Cc3ccc(C(=O)N4CCC[C@H]4CN4CCCC4)n3Cc3ccccc32)ccc1-c1ccccc1C(F)(F)F` [Example 20, {[10-(2-Methoxy)-2′-trifluoromethyl-[1,1′-biphenyl]-4-yl]carbonyl}-[(2S)-[(2-pyrrolidin-1-yl)methyl]pyrrolidin-1-yl]-10,11-dihydro-5H-pyrrolo[2,1-c][1,4]benzodiazepin-3-yl-methanone] and `Cc1cc(C(=O)N2Cc3ccc(C(=O)N4CCC[C@H]4CN4CCCC4)n3Cc3ccccc32)ccc1-c1ccccc1C(F)(F)F` [Example 258, (10-{[2-Methyl-2′-(trifluoromethyl)[1,1′-biphenyl]-4-yl]carbonyl}-10,11-dihydro-5H-pyrrolo[2,1-c][1,4]benzodiazepin-3-yl)[(2S)-2-(1-pyrrolidinylmethyl)pyrrolidinyl]methanone] are within 1.5-fold of each other in IC50: 717 nM for the first, 913 nM for the second.

`COc1cc(-c2ccccc2C)c(Cl)cc1C(=O)N1Cc2ccc(C(=O)N3CCC(N4CCCCC4)CC3)n2Cc2ccccc21` [Example 110, {10-[(6-Chloro-3-methoxy-2′-methyl[1,1′-biphenyl]-4-yl)carbonyl]-10,11-dihydro-5H-pyrrolo[2,1-c][1,4]benzodiazepin-3-yl}[4-(1-piperidinyl)-1-piperidinyl]methanone] and `COc1cc(-c2ccccc2C)c(Cl)cc1C(=O)N1Cc2ccc(C(=O)N3CCC(N4CCCC4)CC3)n2Cc2ccccc21` [Example 136, {10-[(6-Chloro-3-methoxy-2′-methyl[1,1′-biphenyl]-4-yl)carbonyl]-10,11-dihydro-5H-pyrrolo[2,1-c][1,4]benzodiazepin-3-yl}[4-(1-pyrrolidinyl)-1-piperidinyl]methanone] are within 1.5-fold of each other in IC50: 661 nM for the first, 538 nM for the second.

First: COc1ccccc1-c1ccc(C(=O)N2Cc3ccc(C(=O)N4CCC(N5CCCCC5)CC4)n3Cc3ccccc32)cc1 [Example 111, {10-[(2′-Methoxy[1,1′-biphenyl]-4-yl)carbonyl]-10,11-dihydro-5H-pyrrolo[2,1-c][1,4]benzodiazepin-3-yl}[4-(1-piperidinyl)-1-piperidinyl]methanone]
Second: C=CCN1CCN(C(=O)c2ccc3n2Cc2ccccc2N(C(=O)c2ccc(-c4ccccc4OC)cc2)C3)CC1 [Example 221, (4-Allyl-1-piperazinyl){10-[(2′-methoxy[1,1′-biphenyl]4-yl)carbonyl]-10,11-dihydro-5H -pyrrolo[2,1-c][1,4]benzodiazepin-3-yl}methanone]
The IC50 of the first is 1.8-fold lower: 459 nM for the first, 818 nM for the second.

First: COc1ccccc1-c1ccc(C(=O)N2Cc3ccc(C(=O)N4CCN(CCN(C)C)CC4)n3Cc3ccccc32)cc1C [Example 195, {4-[2-(Dimethylamino)ethyl]-1-piperazinyl}{10-[(2′-methoxy-2-methyl[1,1′-biphenyl]-4-yl)carbonyl]-10,11-dihydro-5H-pyrrolo[2,1-c][1,4]benzodiazepin-3-yl}methanone]
Second: COc1ccccc1-c1ccc(C(=O)N2Cc3ccc(C(=O)N4CCN(CCCN(C)C)CC4)n3Cc3ccccc32)cc1C [Example 245, {4-[3-(Dimethylamino)propyl]-1-piperazinyl}{10-[(2′-methoxy-2-methyl[1,1′-biphenyl]-4-yl)carbonyl]-10,11-dihydro-5H-pyrrolo[2,1-c][1,4]benzodiazepin-3-yl}methanone]
The IC50 of the first is 2.5-fold lower: 367 nM for the first, 933 nM for the second. The first is the more potent here.

`Cc1cc(C(=O)N2Cc3ccc(C(=O)N4CCN(CCN(C)C)CC4)n3Cc3ccccc32)ccc1-c1ccccc1C(F)(F)F` [Example 196, {4-[2-(Dimethylamino)ethyl]-1-piperazinyl}(10-{[2-methyl-2′-(trifluoromethyl)[1,1′-biphenyl]-4-yl]carbonyl}-10,11-dihydro-5H-pyrrolo[2,1-c][1,4]benzodiazepin-3-yl)methanone] and `Cc1cc(C(=O)N2Cc3ccc(C(=O)N4CC[C@@H](N(C)C)C4)n3Cc3ccccc32)ccc1-c1ccccc1C(F)(F)F` [Example 271, [(3R)-3-(Dimethylamino)pyrrolidinyl](10-{[2-methyl-2′-(trifluoromethyl)[1,1′-biphenyl]-4-yl]carbonyl}-10,11-dihydro-5H-pyrrolo[2,1-c][1,4]benzodiazepin-3-yl)methanone] are within 1.5-fold of each other in IC50: 1240 nM for the first, 983 nM for the second.

Compared with `COc1cc(-c2ccccc2C)c(Cl)cc1C(=O)N1Cc2ccc(C(=O)N3CCN(CCN(C)C)CC3)n2Cc2ccccc21` [Example 197, {10-[(6-Chloro-3-methoxy-2′-methyl[1,1′-biphenyl]-4-yl)carbonyl]-10,11-dihydro-5H-pyrrolo[2,1-c][1,4]benzodiazepin-3-yl}{4-[2-(dimethylamino)ethyl]-1-piperazinyl}methanone], `C=CCN1CCN(C(=O)c2ccc3n2Cc2ccccc2N(C(=O)c2cc(Cl)c(-c4ccccc4C)cc2OC)C3)CC1` [Example 219, (4-Allyl-1-piperazinyl){10-[(6-chloro-3-methoxy-2′-methyl[1,1′-biphenyl]-4-yl)carbonyl]-10,11-dihydro-5H-pyrrolo[2,1-c][1,4]benzodiazepin-3-yl}methanone] is 3.5-fold higher in IC50: 524 nM for the first, 1810 nM for the second. The first is the more potent here.

Compared with `COc1ccccc1-c1ccc(C(=O)N2Cc3ccc(C(=O)N4CCN(CCN5CCOCC5)CC4)n3Cc3ccccc32)cc1C` [Example 206, {10-[(2′-Methoxy-2-methyl[1,1′-biphenyl]-4-yl)carbonyl]-10,11-dihydro-5H-pyrrolo[2,1-c][1,4]benzodiazepin-3-yl}{4-[2-(4-morpholinyl)ethyl]-1-piperazinyl}methanone], `COc1ccccc1-c1ccc(C(=O)N2Cc3ccc(C(=O)N4CCN(CCN5CCOCC5)CC4)n3Cc3ccccc32)cc1` [Example 207, {10-[(2′-Methoxy[1,1′-biphenyl]-4-yl)carbonyl]-10,11-dihydro-5H-pyrrolo[2,1-c][1,4]benzodiazepin-3-yl}{4-[2-(4-morpholinyl)ethyl]-1-piperazinyl}methanone] is 1.5-fold higher in IC50: 317 nM for the first, 488 nM for the second. The first is the more potent here.

`C=CCN1CCN(C(=O)c2ccc3n2Cc2ccccc2N(C(=O)c2ccc(-c4ccccc4C)c(C)c2)C3)CC1` [Example 220, (4-Allyl-1-piperazinyl){10-[(2,2′-dimethyl[1,1′-biphenyl]-4-yl)carbonyl]-10,11-dihydro-5H -pyrrolo[2,1-c][1,4]benzodiazepin-3-yl}methanone] and `COc1ccccc1-c1ccc(C(=O)N2Cc3ccc(C(=O)N4CC[C@@H](N(C)C)C4)n3Cc3ccccc32)cc1C` [Example 272, [(3R)-3-(Dimethylamino)pyrrolidinyl]{10-[(2′-methoxy-2-methyl[1,1′-biphenyl]-4-yl)carbonyl]-10,11-dihydro-5H-pyrrolo[2,1-c][1,4]benzodiazepin-3-yl}methanone] are within 1.5-fold of each other in IC50: 387 nM for the first, 301 nM for the second.

`COc1ccccc1-c1ccc(C(=O)N2Cc3ccc(C(=O)N4CCN(CCCN(C)C)CC4)n3Cc3ccccc32)cc1` [Example 246, {4-[3-(Dimethylamino)propyl]-1-piperazinyl}{10-[(2′-methoxy[1,1′-biphenyl]-4-yl)carbonyl]-10,11-dihydro-5H-pyrrolo[2,1-c][1,4]benzodiazepin-3-yl}methanone] and `COc1cccc(-c2ccc(C(=O)N3Cc4ccc(C(=O)N5CC[C@@H](N(C)C)C5)n4Cc4ccccc43)cc2C)c1` [Example 278, [(3R)-3-(Dimethylamino)pyrrolidinyl]{10-[(3′-methoxy-2-methyl[1,1′-biphenyl]-4-yl)carbonyl]-10,11-dihydro-5H-pyrrolo[2,1-c][1,4]benzodiazepin-3-yl}methanone] are within 1.5-fold of each other in IC50: 373 nM for the first, 303 nM for the second.

Compared with `COc1cccc(-c2ccc(C(=O)N3Cc4ccc(C(=O)N5CCC[C@H]5CN5CCCC5)n4Cc4ccccc43)cc2C)c1` [Example 263, {10-[(3′-Methoxy-2-methyl[1,1′-biphenyl]-4-yl)carbonyl]-10,11-dihydro-5H-pyrrolo[2,1-c][1,4]benzodiazepin-3-yl}[(2S)-2-(1-pyrrolidinylmethyl)pyrrolidinyl]methanone], `COc1cc(-c2ccccc2C)c(Cl)cc1C(=O)N1Cc2ccc(C(=O)N3CC[C@@H](N(C)C)C3)n2Cc2ccccc21` [Example 273, {10-[(6-Chloro-3-methoxy-2′-methyl[1,1′-biphenyl]-4-yl)carbonyl]-10,11-dihydro-5H-pyrrolo[2,1-c][1,4]benzodiazepin-3-yl}[(3R)-3-(dimethylamino)pyrrolidinyl]methanone] is 2.4-fold higher in IC50: 202 nM for the first, 481 nM for the second. The first is the more potent here.

system: not given; test: not given; details: not given

Compared with `Cc1cc(C(=O)N2Cc3ccc(C(=O)N4CCN(CCCN(C)C)CC4)n3Cc3ccccc32)ccc1-c1ccccc1C(F)(F)F` [Example 4, [4-(3-Dimethylaminopropyl)-piperazin-1-yl]-[10-(2-methyl-2′-trifluoromethyl-[1,1′-biphenyl]-4-yl)carbonyl]-[10,11-dihydro-5H-pyrrolo[2,1-c][1,4]benzodiazepin-3-yl]-methanone], `COc1cc(C(=O)N2Cc3ccc(C(=O)N4CCC[C@H]4CN4CCCC4)n3Cc3ccccc32)ccc1-c1ccccc1C(F)(F)F` [Example 20, {[10-(2-Methoxy)-2′-trifluoromethyl-[1,1′-biphenyl]-4-yl]carbonyl}-[(2S)-[(2-pyrrolidin-1-yl)methyl]pyrrolidin-1-yl]-10,11-dihydro-5H-pyrrolo[2,1-c][1,4]benzodiazepin-3-yl-methanone] is higher in melting point: 85 to 95 °C for the first, 125 to 128 °C for the second.
